Measurements published in ChEMBL document CHEMBL1150552, “Silyl ethers of cycloheptene, novel proton pump inhibitors obtained during the total synthesis of the scopadulcic acids” (Bioorg Med Chem Lett, 1995).

How the values were obtained:
[1] = target: T1, Potassium-transporting ATPase (Sus scrofa) (UniProt P18434+P19156); assay: Inhibition of procine gastric H+,K+-ATPase at 10 uM in vitro.; assay type: tissue-based; conditions: Stomach
[2] = target: T1, Potassium-transporting ATPase (Sus scrofa); assay: Inhibition of procine gastric H+,K+-ATPase at 1 uM in vitro.; assay type: tissue-based; conditions: Stomach
[3] = target: T1, Potassium-transporting ATPase (Sus scrofa); assay: Inhibition of procine gastric H+,K+-ATPase at 100 uM in vitro.; assay type: tissue-based; conditions: Stomach
[4] = Vmax value was measured at 10 uM concentration of silyl ether.; assay type: ADME, Sus scrofa; conditions: pig
[5] = Vmax value was measured at 0 uM concentration of silyl ether.; assay type: ADME, Sus scrofa; conditions: pig
[6] = Michaelis-Menten constant of the compound.; assay type: ADME, Sus scrofa; conditions: pig
[7] = Vmax value was measured at 5 uM concentration of silyl ether.; assay type: ADME, Sus scrofa; conditions: pig
[8] = target: Potassium-transporting ATPase (Sus scrofa, UniProt P19156); assay: Tested for inhibitory activity against gastric H+, K+-ATPase; assay type: tissue-based, Stomach
Chain of Potassium-transporting ATPase (P18434 whole entry): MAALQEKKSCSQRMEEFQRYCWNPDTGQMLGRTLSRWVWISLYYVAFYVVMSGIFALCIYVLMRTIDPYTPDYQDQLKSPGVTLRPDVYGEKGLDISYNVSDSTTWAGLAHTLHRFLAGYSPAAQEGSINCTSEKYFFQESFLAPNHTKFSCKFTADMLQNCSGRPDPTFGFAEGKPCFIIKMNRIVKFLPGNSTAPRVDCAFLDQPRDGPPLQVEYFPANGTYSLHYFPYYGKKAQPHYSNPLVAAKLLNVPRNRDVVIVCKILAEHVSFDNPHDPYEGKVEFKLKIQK
Chain of Potassium-transporting ATPase (P19156 whole entry): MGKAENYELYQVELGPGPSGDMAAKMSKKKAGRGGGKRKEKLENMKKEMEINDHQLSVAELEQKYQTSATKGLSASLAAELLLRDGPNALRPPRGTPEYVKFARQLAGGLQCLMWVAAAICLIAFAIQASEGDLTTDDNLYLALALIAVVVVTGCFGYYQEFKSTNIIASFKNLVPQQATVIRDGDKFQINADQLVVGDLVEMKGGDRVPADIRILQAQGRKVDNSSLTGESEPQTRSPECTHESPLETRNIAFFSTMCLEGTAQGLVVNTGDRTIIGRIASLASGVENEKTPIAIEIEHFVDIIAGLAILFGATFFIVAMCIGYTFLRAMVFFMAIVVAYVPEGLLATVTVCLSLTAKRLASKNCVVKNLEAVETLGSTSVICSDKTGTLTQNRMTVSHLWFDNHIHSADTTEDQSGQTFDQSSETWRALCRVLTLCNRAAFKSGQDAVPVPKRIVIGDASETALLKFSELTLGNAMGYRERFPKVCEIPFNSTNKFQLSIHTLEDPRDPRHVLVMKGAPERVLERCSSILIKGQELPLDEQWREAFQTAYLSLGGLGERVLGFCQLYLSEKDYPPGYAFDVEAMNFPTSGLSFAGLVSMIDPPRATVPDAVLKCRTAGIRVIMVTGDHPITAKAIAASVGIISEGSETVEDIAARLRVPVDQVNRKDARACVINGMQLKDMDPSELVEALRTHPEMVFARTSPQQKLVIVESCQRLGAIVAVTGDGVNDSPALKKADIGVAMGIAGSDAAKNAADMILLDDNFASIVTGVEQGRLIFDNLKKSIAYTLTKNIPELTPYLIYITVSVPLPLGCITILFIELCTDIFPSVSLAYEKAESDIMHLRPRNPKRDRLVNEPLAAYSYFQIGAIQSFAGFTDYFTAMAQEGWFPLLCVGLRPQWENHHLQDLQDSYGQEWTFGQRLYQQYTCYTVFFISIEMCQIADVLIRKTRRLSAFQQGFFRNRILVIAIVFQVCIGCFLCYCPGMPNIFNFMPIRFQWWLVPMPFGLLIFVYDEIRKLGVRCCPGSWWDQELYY

Row | Compound | inhibition [1] | inhibition [2] | inhibition [3] | Vmax [4] | Vmax [5] | Km [6] | Vmax [7] | IC50 [8]
1 | COC(=O)[C@]1(C)CCC[C@@]2(C)[C@H]1[C@H](OC(=O)c1ccccc1)C[C@H]1CC(=O)[C@@]3(C)CC[C@]12C3 | 74% | 36% | 81% |  |  |  |  | 
2 | C[C@]12CC[C@]3(C1)C(=CC(=O)c1ccccc13)C[C@@H]2O | 17% | 8% | 17% |  |  |  |  | 
3 | CC1=CCC(CC(O[Si](C)(C)C(C)(C)C)c2ccccc2I)C(=O)CC1 (configuration not stated) | 74% | 30% | 95% | 31 µM/h/mg | 125 µM/h/mg | 460 µM | 63 µM/h/mg | 8.2 µM
4 | COCO[C@H]1C[C@@H]2CC(=O)C3[C@@H](C#N)CCC[C@]3(C)[C@]23CC[C@@]1(C)C3 (some centres not stated) | 7% | 5% | 17% |  |  |  |  | 
5 | C[C@]12CC[C@]3(C1)[C@H](CC2=O)C[C@@H](OC(=O)c1ccccc1)[C@H]1[C@](C)(C(=O)O)CCC[C@@]13C | 21% | 7% | 62% |  |  |  |  | 
6 | CO[C@H]1C[C@@H]2CC(=O)c3ccccc3[C@]23CC[C@@]1(C)C3 | 17% |  | 42% |  |  |  |  | 
7 | C[C@]12C=CC3=CC(=O)c4ccccc4[C@@]3(CC1)C2 | 9% | 16% | 61% |  |  |  |  | 
8 | C=C1CCC(C)=CCC1CC(O[Si](C)(C)C(C)(C)C)c1ccccc1I (configuration not stated) | 63% | 15% | 98% |  |  |  |  | 
9 | C=C[C@@]1(C)C[C@@H]1C(=O)CCC(O)c1ccccc1I (some centres not stated) | 35% | 8% | 63% |  |  |  |  | 
10 | CC1=CCC(CCO)C(=O)CC1 (configuration not stated) | 9% | 11% | 34% |  |  |  |  | 
11 | CO[C@H]1C[C@@H]2CC(=O)C3=C(CCC[C@@]3(C)CO)[C@]23CC[C@@]1(C)C3 | 14% | 9% | 8% |  |  |  |  | 
12 | COCO[C@H]1C[C@@H]2C[C@@H](O[Si](C)(C)C)C3[C@@H](C#N)CCC[C@]3(C)[C@]23CC[C@@]1(C)C3 (some centres not stated) | 32% | 4% | 67% |  |  |  |  | 
13 | CC1=CCC(CC(O)c2ccccc2I)C(=O)CC1 (configuration not stated) | 19% | 10% | 72% |  |  |  |  | 
14 | C[C@]12CCC3=CC(=O)c4ccccc4[C@@]3(CC1)C2 | 9% | -2% | 52% |  |  |  |  | 
15 | C=C1CCC(C)=CC[C@@H]1C[C@@H](O)C#CCCCC1OCCO1 | 13% | 8% | 20% |  |  |  |  | 
16 | C[C@]12CC[C@@]3(C1)c1ccccc1C(=O)C[C@H]3C[C@@H]2O | 19% | 18% | 0% |  |  |  |  | 
17 | CO[C@H]1C[C@@H]2C[C@@H]3OC(=O)c4cccc(c43)[C@]23CC[C@@]1(C)C3 | 16% | 1% | 55% |  |  |  |  | 
18 | C=C1CCC(C)=CC[C@@H]1C[C@H](/C=C(\I)CCCC1OCCO1)O[Si](C)(C)C(C)(C)C | 63% | 14% | 93% |  |  |  |  | 
19 | CO[C@H]1C[C@@H]2C[C@H](O)c3c(C(=O)O)cccc3[C@]23CC[C@@]1(C)C3 | 0% | -6% | 21% |  |  |  |  | 
20 | C=C[C@@]1(C)C[C@@H]1C(=O)CCC(O[Si](C)(C)C(C)(C)C)c1ccccc1I (some centres not stated) | 50% | 29% | 80% |  |  |  |  | 
21 | COCO[C@H]1C[C@@H]2C[C@@H](O[Si](C)(C)C)C3[C@](C#N)(COCc4ccccc4)CCC[C@]3(C)[C@]23CC[C@@]1(C)C3 (some centres not stated) | 44% | 25% | 52% |  |  |  |  | 
